{"source": "patent US5424185A", "about": "“Human high-affinity neurotransmitter uptake system” (Baylor College of Medicine, priority 1990, dated 1995)", "key": {"[1]": {"tested_on": "rat spinal cord", "conditions": "membrane preparation, published value, cited from earlier work"}, "[2]": {"tested_on": "goldfish retina", "conditions": "tissue, published value, cited from earlier work"}, "[3]": {"tested_on": "human brain (post-mortem)", "conditions": "membrane preparation, published value, cited from earlier work"}, "[4]": {"tested_on": "chicken spinal cord", "conditions": "membrane preparation, published value, cited from earlier work"}, "[5]": {"tested_on": "L-M cells", "conditions": "ligand 100 μM (1000-fold excess), 0.1 μM [3H]glycine, 40 min, 37° C.", "method": "(§1) L-GLY2 and L-M cells were assayed for the uptake of [^3 H] glycine (0.1 μM) in the presence or absence of competing, unlabelled amino acids or neurotransmitters. Each competing ligand was present in 1000-fold molar excess (100 μM) of the [^3 H] glycine. […] The assays were performed at 37° C. for 40 minutes. Alanine, proline and serine, each at 1 mM, was added to the Ringer's buffer for all assays.\n(§2) At each concentration of [^3 H] glycine used, both uptake levels were converted to picomole-equivalents of [^3 H] glycine, then normalized by both length of assay and corresponding protein contents to arrive at the uptake velocity values. The nonspecific uptake velocity was then subtracted from the total uptake velocity to yield the specific uptake velocity. The specific uptake velocities and their corresponding [^3 H] glycine concentrations were analyzed by both Michaelis-Menten and Lineweaver-Burk transformations of the resulting kinetic profiles. For both analyses, data-points were fitted to either linear or logarithmic functions by computerized algorithms."}, "[6]": {"tested_on": "Y79 retinoblastoma", "conditions": "cell, published value, cited from earlier work"}, "[7]": {"tested_on": "frog brain", "conditions": "membrane preparation, published value, cited from earlier work"}, "[8]": {"tested_on": "mouse pons-medulla-spinal cord", "conditions": "membrane preparation, published value, cited from earlier work"}, "[9]": {"tested_on": "frog spinal cord", "conditions": "membrane preparation, published value, cited from earlier work"}, "[10]": {"tested_on": "chicken brain", "conditions": "membrane preparation, published value, cited from earlier work"}, "[11]": {"tested_on": "monkey retina", "conditions": "tissue, published value, cited from earlier work"}, "[12]": {"tested_on": "GABA transporter (L-GAB1 cells)", "assay": "[3H]GABA uptake by L-GAB1 cells", "format": "cell-based, human", "conditions": "competitor at 100-fold excess relative to [3H]GABA", "method": "Using concentrations of [^3 H] GABA ranging from 2 to 500 μM, the kinetic profile of GABA uptake was determined for both L-GAB1 and L-M cells. The initial velocity of GABA uptake was measured and plotted against the corresponding [^3 H] GABA concentration for both cell lines. […] The velocity profile for L-GAB1 cells was subtracted by that of L-M cells, and the resulting data used for a double-reciprocal plot of velocity-^1 against GABA concentration-^1. The velocity profile for L-M cells was also transformed into a double-reciprocal plot.\nSeveral known inhibitors of high-affinity GABA uptake were used to examine their efficacies in inhibiting [^3 H] GABA uptake by L-GAB1 cells. […] Each of these agents was used at several concentrations ranging from 1 to 100 μM in assays of [^3 H] GABA uptake by L-GAB1 cells. […] GABA uptake by L-GAB1 cells.\nL-GAB1 cells were also analyzed in terms of their ligand-specificity in the high-affinity GABA uptake mechanism."}, "[13]": {"tested_on": "human glycine transporter (L-GLY2 cells)", "method": "The incubation was conducted for 40 min at 37° C. Each well was washed three times at room temperature with excess Ringer's buffer and then incubated with 50 μl of alkaline phosphatase buffer (100 mM Tris, pH 9.5, 100 mM NaCl, 10 mMMgCl2, 20 μg/ml saponin, 3.2 mg/ml p-nitrophenyl phosphate) for 1-2 hours at 37° C. The phosphatase assay was used as a relative assessment of cell number, and used to normalize the level of [^3 H]glycine associated with each well as described above. The phosphatase reading for each assayed well was plotted versus its corresponding level of [^3 H]glycine-retention.\nas §1, §2"}, "[14]": {"tested_on": "C6 glioblastoma", "conditions": "read-out: Km, C6 glioblastoma; membrane preparation, published value; cited from earlier work"}, "[15]": {"tested_on": "mouse cerebral cortex", "conditions": "membrane preparation, published value, cited from earlier work"}, "[16]": {"tested_on": "frog retina", "conditions": "read-out: Km, frog retina; tissue, published value; cited from earlier work"}, "[17]": {"tested_on": "rat brain", "conditions": "membrane preparation, published value, cited from earlier work"}}, "note": "Like-named read-outs stand apart in the source and are kept apart here."}
{"smiles": "NCC(=O)O", "note": "[glycine]", "values": [{"measurement": "Vmax, rat spinal cord", "setting": "[1]", "result": "1.43 ± 0.02", "unit": "pmol/mg/min"}, {"measurement": "Km", "setting": "[1]; read-out: Km, rat spinal cord", "result": "46.5 ± 1.6", "unit": "µM"}, {"measurement": "Km", "setting": "[2]; read-out: Km, goldfish retina", "result": "8.08 ± 0.7", "unit": "µM"}, {"measurement": "Vmax, goldfish retina", "setting": "[2]", "result": "8.71 ± 0.54", "unit": "pmol/mg/min"}, {"measurement": "Vmax, human brain (post-mortem)", "setting": "[3]", "result": "55 ± 25", "unit": "pmol/mg/min"}, {"measurement": "Km", "setting": "[3]; read-out: Km, human brain (post-mortem)", "result": "35 ± 19", "unit": "µM"}, {"measurement": "Vmax, chicken spinal cord", "setting": "[4]", "result": "0.65 ± 0.02", "unit": "pmol/mg/min"}, {"measurement": "Km", "setting": "[4]; read-out: Km, chicken spinal cord", "result": "41.8 ± 1", "unit": "µM"}, {"measurement": "effect of competing ligand on [3H]glycine uptake, L-M", "setting": "[5]", "result": "not significantly inhibited"}, {"measurement": "Vmax, Y79 retinoblastoma", "setting": "[6]", "result": "138.40 ± 12.40", "unit": "pmol/mg/min"}, {"measurement": "Km", "setting": "[6]; read-out: Km, Y79 retinoblastoma", "result": "24.4 ± 2.6", "unit": "µM"}, {"measurement": "Vmax, frog brain", "setting": "[7]", "result": "1.14 ± 0.06", "unit": "pmol/mg/min"}, {"measurement": "Km", "setting": "[7]; read-out: Km, frog brain", "result": "24.8 ± 1.4", "unit": "µM"}, {"measurement": "Vmax, mouse pons-medulla-spinal cord", "setting": "[8]", "result": "3100 ± 100", "unit": "pmol/mg/min"}, {"measurement": "Km", "setting": "[8]; read-out: Km, mouse pons-medulla-spinal cord", "result": "27.6 ± 2.6", "unit": "µM"}, {"measurement": "Vmax, frog spinal cord", "setting": "[9]", "result": "1.52 ± 0.03", "unit": "pmol/mg/min"}, {"measurement": "Km", "setting": "[9]; read-out: Km, frog spinal cord", "result": "29 ± 0.7", "unit": "µM"}, {"measurement": "Vmax, chicken brain", "setting": "[10]", "result": "0.32 ± 0.01", "unit": "pmol/mg/min"}, {"measurement": "Km", "setting": "[10]; read-out: Km, chicken brain", "result": "37 ± 2", "unit": "µM"}, {"measurement": "Km", "setting": "[11]; read-out: Km, monkey retina", "result": "2.5 ± 0.9", "unit": "µM"}, {"measurement": "Vmax, monkey retina", "setting": "[11]", "result": "3.30 ± 1.60", "unit": "pmol/mg/min"}, {"measurement": "ligand-specificity of [3H]GABA uptake by L-GAB1 cells", "setting": "[12]", "result": "not inhibited"}, {"measurement": "Vmax of glycine uptake, L-GLY2", "setting": "[13]; 50 nM to 5 μM [3H]glycine, 10 min, Lineweaver-Burk", "result": "10.19±3.32", "unit": "pmol/min/mg protein"}, {"measurement": "Vmax, L-GLY2", "setting": "[13]; Table IV", "result": "10.19 ± 3.32", "unit": "pmol/mg/min"}, {"measurement": "effect of competing ligand on [3H]glycine uptake, L-GLY2", "setting": "[13]; ligand 100 μM (1000-fold excess), 0.1 μM [3H]glycine, 40 min, 37° C., 1 mM alanine, proline, serine", "result": "reduced [^3 H] glycine transport into L-GLY2 cells to the same level as that of L-M cells"}, {"measurement": "Km", "setting": "[13]; read-out: Km, L-GLY2, Table IV", "result": "1.5 ± 0.2", "unit": "µM"}, {"measurement": "Km", "setting": "[13]; read-out: apparent Km of glycine uptake, L-GLY2, 50 nM to 5 μM [3H]glycine, 10 min, Lineweaver-Burk", "result": 1.5, "unit": "µM"}, {"measurement": "Km", "setting": "[14]", "result": 100, "unit": "µM"}, {"measurement": "Vmax, mouse cerebral cortex", "setting": "[15]", "result": "340 ± 70", "unit": "pmol/mg/min"}, {"measurement": "Km", "setting": "[15]; read-out: Km, mouse cerebral cortex", "result": "15.2 ± 2", "unit": "µM"}, {"measurement": "Km", "setting": "[16]", "result": "> 4.7", "unit": "µM"}, {"measurement": "Vmax, rat brain", "setting": "[17]", "result": "0.48 ± 0.07", "unit": "pmol/mg/min"}, {"measurement": "Km", "setting": "[17]; read-out: Km, rat brain", "result": "34 ± 1.3", "unit": "µM"}]}
